# Measurements reported in ChEMBL document CHEMBL1201862, “PubChem BioAssay data set” (2004).
#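 Interpolation was linear, between the two tested concentrations surrounding the appropriate level; five concentrations were tested over 48 hours in 96-well plates. The concentration for 50% growth inhibition is given as GI50.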 Active and inactive are the calls of the source. No stated cut-off is given here; in the data, active = GI50 up to about 1.1 µM and inactive = higher.
# Tests used:
# Assay in all cases: NCI tumour cell line growth inhibition, 48 h
# A498 = test system: A498
# COLO 205 = test system: COLO 205
# HCC 2998 = test system: HCC 2998
# HOP-92 = test system: HOP-92
# IGROV-1 = test system: IGROV-1
# K562 = test system: K562
# MOLT-4 = test system: MOLT-4
# NCI-H23 = test system: NCI-H23
# NCI/ADR-RES = test system: NCI/ADR-RES
# OVCAR-5 = test system: OVCAR-5
# OVCAR-8 = test system: OVCAR-8
# RPMI-8226 = test system: RPMI-8226
# RXF 393 = test system: RXF 393
# SF-295 = test system: SF-295
# SF-539 = test system: SF-539
# SN12C = test system: SN12C
# SNB-75 = test system: SNB-75
# SR = test system: SR
# T47D = test system: T47D
# TK-10 = test system: TK-10
Compound,GI50 (A498),GI50 (COLO 205),GI50 (HCC 2998),GI50 (HOP-92),GI50 (IGROV-1),GI50 (K562),GI50 (MOLT-4),GI50 (NCI-H23),GI50 (NCI/ADR-RES),GI50 (OVCAR-5),GI50 (OVCAR-8),GI50 (RPMI-8226),GI50 (RXF 393),GI50 (SF-295),GI50 (SF-539),GI50 (SN12C),GI50 (SNB-75),GI50 (SR),GI50 (T47D),GI50 (TK-10)
COC(=O)C(Cc1c[nH]c2ccccc12)NP(=O)(O)OCC1OC(n2cc(F)c(=O)[nH]c2=O)CC1O (stereo not given),0.964 µM (active),> 100 µM (inactive),99.3 µM (inactive),31.4 µM (inactive),> 71.1 µM (inactive),> 100 µM (inactive),10.1 µM (inactive),> 56 µM (inactive),37.2 µM (inactive),> 100 µM (inactive),65.9 µM (inactive),31.3 µM (inactive),> 100 µM (inactive),> 91.2 µM (inactive),4.71 µM (inactive),> 64.4 µM (inactive),> 63.7 µM (inactive),5.02 µM (inactive),> 32.5 µM (inactive),> 100 µM (inactive)
O=C(NCCCCNCCCNC(=O)C(F)(F)F)C(F)(F)F,> 100 µM (inactive),> 100 µM (inactive),> 100 µM (inactive),> 100 µM (inactive),> 100 µM (inactive),> 100 µM (inactive),> 100 µM (inactive),> 100 µM (inactive),> 100 µM (inactive),> 100 µM (inactive),> 100 µM (inactive),> 100 µM (inactive),> 100 µM (inactive),32.6 µM (inactive),> 100 µM (inactive),> 100 µM (inactive),> 100 µM (inactive),> 100 µM (inactive),> 100 µM (inactive),> 100 µM (inactive)
CCOC(=O)C1=NNC(C(=O)c2ccccc2)C1c1ccccc1 (stereo not given),25.1 µM (inactive),2.05 µM (inactive),1.96 µM (inactive),2.07 µM (inactive),4.6 µM (inactive),1.47 µM (inactive),3.54 µM (inactive),2.42 µM (inactive),4.35 µM (inactive),6.47 µM (inactive),5.51 µM (inactive),3.85 µM (inactive),1.7 µM (inactive),16.9 µM (inactive),2.17 µM (inactive),2.08 µM (inactive),5.7 µM (inactive),1.81 µM (inactive),4.24 µM (inactive),2.25 µM (inactive)
O=C1c2ccccc2C2CNC1(O)c1ccccc12 (stereo not given),> 100 µM (inactive),> 100 µM (inactive),> 100 µM (inactive),> 100 µM (inactive),> 100 µM (inactive),> 100 µM (inactive),> 100 µM (inactive),> 100 µM (inactive),> 100 µM (inactive),> 100 µM (inactive),> 100 µM (inactive),> 100 µM (inactive),> 100 µM (inactive),> 100 µM (inactive),> 100 µM (inactive),> 100 µM (inactive),> 100 µM (inactive),> 100 µM (inactive),> 100 µM (inactive),> 100 µM (inactive)
CCCCCCCCCCCCCCCCCC(=O)OCC(COC1OC(CS(=O)(=O)O)C(O)C(O)C1O)OC(=O)CCCCCCCCCCCCCCCCC (stereo not given),> 100 µM (inactive),> 100 µM (inactive),> 100 µM (inactive),45.2 µM (inactive),> 100 µM (inactive),> 100 µM (inactive),> 100 µM (inactive),> 100 µM (inactive),> 100 µM (inactive),> 100 µM (inactive),> 100 µM (inactive),> 100 µM (inactive),> 100 µM (inactive),> 100 µM (inactive),> 100 µM (inactive),> 100 µM (inactive),10.4 µM (inactive),0.222 µM (active),> 100 µM (inactive),> 100 µM (inactive)
COc1cc(Nc2n[nH]c(NS(=O)(=O)c3cc(C)c(Cl)cc3S)n2)cc(OC)c1OC,> 100 µM (inactive),> 100 µM (inactive),> 100 µM (inactive),> 100 µM (inactive),> 100 µM (inactive),> 100 µM (inactive),> 100 µM (inactive),> 100 µM (inactive),> 100 µM (inactive),> 100 µM (inactive),> 100 µM (inactive),> 100 µM (inactive),> 100 µM (inactive),> 100 µM (inactive),> 100 µM (inactive),> 100 µM (inactive),> 100 µM (inactive),> 100 µM (inactive),> 100 µM (inactive),> 100 µM (inactive)
O=[N+]([O-])c1cc(F)ccc1S(=O)(=O)c1ccccc1,> 10 µM (inactive),> 10 µM (inactive),> 10 µM (inactive),> 10 µM (inactive),> 10 µM (inactive),> 10 µM (inactive),> 10 µM (inactive),> 10 µM (inactive),> 10 µM (inactive),> 10 µM (inactive),> 10 µM (inactive),> 10 µM (inactive),> 10 µM (inactive),> 10 µM (inactive),> 10 µM (inactive),> 10 µM (inactive),> 10 µM (inactive),> 10 µM (inactive),> 10 µM (inactive),> 10 µM (inactive)
C=C(CN(C)C)C(=O)c1ccccc1OC,28.4 µM (inactive),3.53 µM (inactive),34.6 µM (inactive),14.7 µM (inactive),24.4 µM (inactive),4.35 µM (inactive),2.46 µM (inactive),17.9 µM (inactive),20.7 µM (inactive),19.1 µM (inactive),21.6 µM (inactive),5.28 µM (inactive),7.85 µM (inactive),> 56.9 µM (inactive),15.6 µM (inactive),18.9 µM (inactive),27.2 µM (inactive),10.2 µM (inactive),15 µM (inactive),16.1 µM (inactive)
